Reference: ChEMBL document CHEMBL4715899, “In-situ side-chain peptide cyclization as a breaker strategy against the amyloid aggregating peptide” (Bioorg Med Chem, 2021)
Active and inactive are the calls of the source. The calls are words filed in the database; no cut-off is given here. Residues, ends and D or L forms follow the SMILES beside them. *: point of attachment. OBn = c1ccc(CO*)cc1

How the values were obtained:
[1] = Aggregation property of the compound in PBS buffer at pH 7.4 at 50 uM after 7 days by thioflavin-T fluorescence assay; type: physicochemical; details: pH 7.4, 168 h, time 7 day
[2] = organism: Homo sapiens; assay: Inhibition of amyloid beta (1 to 40) (unknown origin) aggregation assessed as fibril formation at protein to ligand concentration ratio of 1:1 to 1:5 after 7 days by thioflavin-T fluorescence assay; details: time 7.0 day
[3] = Amyloidogenic property of compound in PBS buffer at pH 7.4 assessed as fibrillar assembly at 50 uM after 7 days by TEM anlaysis; details: time 7.0 day
[4] = organism: Homo sapiens; assay: Disruption of preformed amyloid beta (1 to 40) (unknown origin) aggregation assessed as reduction in fibril formation at protein to ligand concentration ratio of 1:1 to 1:5 after 4 to 7 days by FTIR analysis; details: time 4-7 day
[5] = organism: Homo sapiens; assay: Disruption of preformed amyloid beta (1 to 40) (unknown origin) aggregation assessed as reduction in fibril formation at protein to ligand concentration ratio of 1:1 to 1:5 after 7 days by thioflavin-T fluorescence assay; details: time 7.0 day
[6] = organism: Homo sapiens; assay: Inhibition of amyloid beta (1 to 40) (unknown origin) aggregation assessed as fibril formation at protein to ligand concentration ratio of 1:1 to 1:5 after 7 days by Congo-Red staining based birefringence anlaysis; details: time 7.0 day
[7] = organism: Homo sapiens; assay: Disruption of preformed amyloid beta (1 to 40) (unknown origin) aggregation assessed as reduction in fibril formation at protein to ligand concentration ratio of 1:1 to 1:5 after 4 to 7 days by Congo-Red staining based birefringence anlaysis; details: time 4-7 day
[8] = organism: Homo sapiens; assay: Inhibition of amyloid beta (1 to 40) (unknown origin) aggregation assessed as fibril formation at protein to ligand concentration ratio of 1:1 to 1:5 after 7 days by TEM analysis; details: time 7.0 day
[9] = organism: Homo sapiens; assay: Inhibition of amyloid beta (1 to 40) (unknown origin) aggregation at protein to ligand concentration ratio of 1:1 to 1:5 after 7 days by FTIR analysis; details: time 7.0 day
[10] = organism: Homo sapiens; assay: Disruption of preformed amyloid beta (1 to 40) (unknown origin) aggregation assessed as reduction in fibril formation at protein to ligand concentration ratio of 1:1 to 1:5 after 7 days by CD spectroscopic analysis; details: time 7.0 day
[11] = organism: Homo sapiens; assay: Inhibition of amyloid beta (1 to 40) (unknown origin) aggregation at protein to ligand concentration ratio of 1:1 to 1:5 after 7 days by CD spectroscopic analysis; details: time 7.0 day
[12] = organism: Homo sapiens; assay: Disruption of preformed amyloid beta (1 to 40) (unknown origin) aggregation assessed as reduction in fibril formation at protein to ligand concentration ratio of 1:1 to 1:5 after 7 days by FTIR analysis; details: time 7.0 day
[13] = Amyloidogenic property of compound in PBS buffer at pH 7.4 assessed as fibrillar assembly at 50 uM after 7 days by Congo-Red staining based birefringence anlaysis; details: time 7.0 day
[14] = organism: Homo sapiens; assay: Inhibition of amyloid beta (1 to 40) (unknown origin)-induced pore formation in large unilamellar vesicles at 10 days pretested 1:5 ratio of amyloid beta (1 to 40) to ligand concentration followed by LUV treatment and measured up to 72 hrs by carboxy-fluorescein dye assay; details: time 10.0 day
[15] = organism: Homo sapiens; assay: Inhibition of preformed amyloid beta (1 to 40) (unknown origin)-induced pore formation in large unilamellar vesicles at 10 days pretested 1:5 ratio of amyloid beta (1 to 40) to ligand concentration followed by LUV treatment and measured up to 120 mins by carboxy-fluorescein dye assay; details: time 10.0 day
[16] = organism: Homo sapiens; assay: Inhibition of amyloid beta (1 to 40) (unknown origin)-induced pore formation in large unilamellar vesicles at 10 days pretested 1:5 ratio of amyloid beta (1 to 40) to ligand concentration followed by LUV treatment and measured up to 120 mins by carboxy-fluorescein dye assay; details: time 10.0 day
[17] = organism: Homo sapiens; assay: Inhibition of preformed amyloid beta (1 to 40) (unknown origin)-induced pore formation in large unilamellar vesicles at 10 days pretested 1:5 ratio of amyloid beta (1 to 40) to ligand concentration followed by LUV treatment and measured up to 172 hrs by carboxy-fluorescein dye assay; details: time 10.0 day

CC(=O)N[C@@H](CCCCN)C(=O)N[C@@H](C)C(=O)N[C@@H](CCC(=O)OCc1ccccc1)C(=O)N[C@@H](Cc1ccccc1)C(=O)N[C@@H](Cc1ccccc1)C(=O)N[C@@H](C)C(N)=O (Ac-KAE(OBn)FFA-NH2)
Activity [1]: Not Active | inhibition [2]: Active | Activity [3]: inactive | Activity [4]: Active | Activity [5]: Active | inhibition [6]: Active | Activity [7]: Active | inhibition [8]: Active | inhibition [9]: Active | Activity [10]: Active | inhibition [11]: Active | Activity [12]: Active | Activity [13]: inactive

CC(=O)N[C@@H](CCCCN)C(=O)N[C@@H](CC(C)C)C(=O)N[C@@H](CCC(=O)OCc1ccccc1)C(=O)N[C@@H](Cc1ccccc1)C(=O)N[C@@H](Cc1ccccc1)C(=O)N[C@@H](C)C(N)=O (Ac-KLE(OBn)FFA-NH2)
Activity [1]: Not Active | inhibition [2]: Active | inhibition [14]: Active | inhibition [15]: Active | Activity [3]: inactive | Activity [4]: Active | Activity [5]: Active | inhibition [6]: Active | Activity [7]: Active | inhibition [8]: Active | inhibition [9]: Active | Activity [10]: Active | inhibition [11]: Active | inhibition [16]: Active | inhibition [17]: Active | Activity [12]: Active | Activity [13]: inactive

CC(=O)N[C@@H](CCCCN)C(=O)NCC(=O)N[C@@H](CCC(=O)OCc1ccccc1)C(=O)N[C@@H](Cc1ccccc1)C(=O)N[C@@H](Cc1ccccc1)C(=O)N[C@@H](C)C(N)=O (Ac-KGE(OBn)FFA-NH2)
Activity [1]: Not Active | inhibition [2]: Active | Activity [3]: inactive | Activity [4]: Active | Activity [5]: Active | inhibition [6]: Active | Activity [7]: Active | inhibition [8]: Active | inhibition [9]: Active | Activity [10]: Active | inhibition [11]: Active | Activity [12]: Active | Activity [13]: inactive
